Reference: US20240409543A1, “PYRROLOPYRAZOLE SPIRO COMPOUND” (CHIA TAI TIANQING PHARMACEUTICAL GROUP CO., LTD., priority 2021, published 2024)

Columns and labels:
[1] = system: human pancreatic cancer MIA PaCa-2 cell line subcutaneous xenograft; assay: In-vivo inhibition of MiaPaCa-2 subcutaneous xenograft tumor; parameters: species or system female BALB/c nude mouse
Experimental: To evaluate the antitumor effect of each test drug in a female BALB/c nude mouse animal model with subcutaneous xenograft of a human pancreatic cancer MIA PaCa-2 cell line.
MIA PaCa-2 cells were cultured in a DMEM medium containing 2.5% HS and 10% fetal bovine serum. MIA PaCa-2 cells in the logarithmic growth phase were collected and resuspended in PBS to achieve an appropriate concentration for subcutaneous tumor inoculation in nude mice.
The experimental mice were inoculated subcutaneously on the right dorsal side with 5×10^6 MIA PaCa-2 cells (the cells were resuspended in a 1:1 mixture of PBS and matrigel), with 0.1 mL per mouse. Tumor growth was observed regularly. Once the tumors reached an average volume of approximately 125 (100-150) mm^3, the mice were randomly divided into groups for administration based on the tumor size and body weight.
After the start of the administration, the body weight and tumor size of the mice were measured twice a week. Calculation formula for tumor volume: Tumor volume (mm^3)=1/2×(a×b^2) (where a represents long diameter and b represents short diameter).

[2] = In-vivo pharmacokinetic study in rats; details: male, SD, rat, plasma
Experimental: This experiment was intended to evaluate the pharmacokinetic behavior of each compound after a single intravenous injection and intragastric administration and to investigate the bioavailability after intragastric administration.
Male SD rats aged 7 to 10 weeks were selected. The rats were fasted for at least 12 h before administration and were allowed to feed again 4 h after administration, with free access to water throughout the experiment.
On the day of the experiment, animals in the intravenous group were given the corresponding compound by a single injection via the tail vein at an administration volume of 5 mL/kg; the oral group was given the corresponding compound by a single intragastric administration at an administration volume of 10 mL/kg. The animals were weighed before administration, and the administration volume was calculated based on their body weight. Sample collection time points: 0.083 h (injection group), 0.25 h, 0.5 h, 1 h, 2 h, 4 h, 6 h, 8 h, and 24 h. At each time point, approximately 200 μL of whole blood was collected via the jugular vein, which was then used to prepare plasma for concentration determination by high performance liquid chromatography-tandem mass spectrometry (LC-MS/MS).
All animals were euthanized with CO2 anesthesia after the PK samples were taken at the last time point. The plasma concentrations were processed using a non-compartmental model of the pharmacokinetic software WinNonlin™ Version 6.3 (Pharsight, Mountain View, CA), and the pharmacokinetic parameters were calculated using a linear log-trapezoidal method.

[3] = Day 12, 30 mg/kg oral once daily
[4] = Day 39, 30 mg/kg oral once daily
[5] = iv, injection (tail vein), dose 2 mg/kg
[6] = oral administration, dose 20 mg/kg

AUC(0-t) [2, 5] [µM·h]	clearance [2, 5] [mL/min/kg]	bioavailability ([2]; oral 20 mg/kg vs injection 2 mg/kg) [%]	AUC(0-t) [2, 6] [µM·h]	Cmax [2, 6] [µM]	SMILES	Mean tumor volume [1, 3] [mm^3]	Inhibition rate (%) at day 39 [1, 4] [%]	Mean tumor volume [1, 4] [mm^3]
–	–	–	–	–	CNc1nccc(Sc2nc(CO)c(N3CCC4(CC3)Cn3nccc3C4N)nc2C)c1Cl (centres unmarked) [Compound 2]	129.17	66.6	248.09
4.05	17.3	98	39.7	9.73	Cc1nc(N2CCC3(CC2)Cn2nccc2C3N)c(CO)nc1Sc1ccnc(N)c1Cl (centres unmarked) [Compound 1]	129.20	63.1	278.34
